Consider four molecules from ChEMBL document CHEMBL4627268, “Development of a potent and orally active activator of adenosine monophosphate-activated protein kinase (AMPK), ASP4132, as a clinical candidate for the treatment of human cancer” (Bioorg Med Chem, 2020).

In general, Tmax refers to the time from dosing to the highest level. A word on the Cmax: it is the peak of the concentration-time curve. One may read the AUC(0-t) as exposure summed from dosing to a finite time, without extrapolation to infinity. The bioavailability is dose-corrected exposure relative to a reference, in per cent. In general, clearance refers to the rate of elimination divided by the concentration.

A short description of series [1]: Intrinsic clearance in human liver microsomes at 0.1 to 0.2 umol/L incubated for 30 mins in presence of NADPH by LC-MS/MS analysis. The class given is ADME, Microsome. Conditions: read-out: CLH. For orientation: Liver microsomes are vesicles of endoplasmic reticulum, rich in cytochrome P450 enzymes.
Series [2] is described as follows: Tmax in Sprague-Dawley rat at 1 mg/kg, po by LC-MS/MS analysis. The class given is ADME, organism-based. The following applies: in vivo.
Series [3] in a line: Cmax in Sprague-Dawley rat at 1 mg/kg, po by LC-MS/MS analysis. The class given is ADME, organism-based. Also on record: dose 1 mg/kg, route oral. Conditions: in vivo.
Series [4] in a line: AUC (0 to 24 hrs) in Sprague-Dawley rat at 1 mg/kg, iv by LC-MS/MS analysis. The series is classed as ADME, organism-based. More on the design: time < 24 hr, dose 1 mg/kg, route intravenous. Conditions: in vivo.
Series [5] is described as follows: Oral bioavailability in Sprague-Dawley rat at 1 mg/kg by LC-MS/MS analysis. The series is classed as ADME, organism-based. Conditions: in vivo.
A short description of series [6]: Elimination half-life in Sprague-Dawley rat at 1 mg/kg, iv by LC-MS/MS analysis. The series is classed as ADME, organism-based. Conditions: in vivo, read-out: beta t1/2 (converted).
Series [7] in a line: AUC (0 to 24 hrs) in Sprague-Dawley rat at 1 mg/kg, po by LC-MS/MS analysis. The series is classed as ADME, organism-based. Also on record: time < 24 hr, dose 1 mg/kg, route oral. Conditions: in vivo.
Series [8] in a line: Volume of distribution at steady state in Sprague-Dawley rat at 1 mg/kg, iv by LC-MS/MS analysis. The class given is ADME, organism-based. The following applies: in vivo, read-out: Vdss.
Series [9] is described as follows: Drug metabolism in Sprague-Dawley rat hepatocytes assessed as esterase-mediated anilide hydrolysis. The class given is ADME, cell-based. The following applies: isolated protein.
The nature of series [10]: Total clearance in Sprague-Dawley rat at 1 mg/kg, iv by LC-MS/MS analysis. The following applies: in vivo. The class given is ADME, organism-based.

`COc1ccc(CN2CCN(C(=O)Nc3ccc(C(=O)N4CCN(Cc5ccc(C(F)(F)F)cc5)CC4)cc3)CC2)cc1`: the CLint scaled in series [1] was 185 mL/min/kg.

For `O=C(Nc1ccc(C(=O)N2CCN(Cc3ccc(C(F)(F)F)cc3)CC2)cc1)N1CCN(Cc2ccc(C(F)(F)F)cc2)CC1`, the CLint scaled in series [1] is 158 mL/min/kg.

As for `COc1ccc(CN2CCC(C(=O)Nc3ccc(C(=O)N4CCN(Cc5ccc(C(F)(F)F)cc5)CC4)cc3)CC2)cn1`, in series [2], the Tmax amounted to 0.5 h. The peak level in series [3] (Cmax) was 1.9 ng/mL. Also, the area under the curve AUC(0-t) at 24 h in [4] was determined as 123 ng·h/mL; in series [7] it was 13.3 ng·h/mL. In series [5], the bioavailability is 11%. The half-life in series [6] is 3.5 h. Besides, in series [1], the CLint scaled amounted to 77 mL/min/kg. The Vd in series [8] turned out to be 50.9 L/kg. Further, the Drug metabolism result in series [9] is recorded as “Metabolite_Detected”. In series [10], the clearance was 137 mL/min/kg.

Turning to `COc1ccc(CN2CCC(c3ccc4[nH]c(C(=O)N5CCN(Cc6ccc(C(F)(F)F)cc6)CC5)nc4c3)CC2)cn1.Cc1ccc(S(=O)(=O)O)cc1.Cc1ccc(S(=O)(=O)O)cc1`, the time to peak (Tmax) in series [2] is 1.7 h. Moreover, in [3], the Cmax was 72 ng/mL. For the same molecule, the exposure AUC(0-t) at 24 h in [4] came out at 887 ng·h/mL; in series [7] it was 705 ng·h/mL. The same molecule registered a bioavailability in series [5] of 80%. For the same molecule, the half-life in series [6] was 3.6 h. In series [1], the CLint scaled was 61 mL/min/kg. The Vd in series [8] came to 4.6 L/kg. This molecule returned a clearance in [10] of 19 mL/min/kg.
